We go through 23 compounds from patent publication US7022716B2, “Cyclic amine phenyl beta-3 adrenergic receptor agonists” (Wyeth, priority 2000, dated 2006).

The target of data set [1] is T1, human β3 adrenergic receptor (Homo sapiens, UniProt P13945).
T1 construct: Full length β3 AR clones (402 amino acids) containing the last 6 amino acids of hβ3-AR are prepared; expressed in transfected cells; host or cells: CHO (Chinese hamster ovary) cells
In words: cAMP (SPA) response in CHO cells transfected with human β3 adrenergic receptor. The format is cell-based. Particulars: maximal response relative to maximal response of isoproterenol at 10^-5 M. Details: key: fraction of maximal isoproterenol (10^-5 M) response. The procedure, abridged:
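Reactions were stopped with 0.2N HCl and neutralised, and cAMP was measured by SPA. Activity is expressed as percent of the maximal 10^−5 M isoproterenol response.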

In general, melting point refers to the temperature, or range, at which the solid turns liquid.

T1 sequence (P13945 whole entry): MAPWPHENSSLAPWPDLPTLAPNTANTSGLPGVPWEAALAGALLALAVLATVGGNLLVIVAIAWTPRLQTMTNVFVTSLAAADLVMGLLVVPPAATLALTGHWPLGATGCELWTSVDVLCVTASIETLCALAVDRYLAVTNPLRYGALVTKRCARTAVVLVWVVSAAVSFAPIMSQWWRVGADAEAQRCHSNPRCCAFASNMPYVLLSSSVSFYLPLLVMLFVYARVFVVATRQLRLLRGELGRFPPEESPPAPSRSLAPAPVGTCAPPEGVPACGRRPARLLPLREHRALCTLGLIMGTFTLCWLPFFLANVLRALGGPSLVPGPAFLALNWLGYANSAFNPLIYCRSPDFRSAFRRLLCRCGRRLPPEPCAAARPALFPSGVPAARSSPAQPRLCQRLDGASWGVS

`O=C1NC(=O)C(Cc2ccc(N3CCC(NC[C@H](O)COc4ccccc4)CC3)cc2)S1` (stereo partly drawn) [Example 73, 5-[4-[4-((2S)-2-Hydroxy-3-phenoxy-propylamino)-piperidin-1-yl]-benzyl}-thiazolidin-2,4-dione] gave a melting point of 218 to 220 °C. For the same compound, the “IA(β3)” value in data set [1] worked out at 0.71.
For the compound `CS(=O)(=O)Nc1cc([C@@H](O)CNC2CCN(c3ccc(CC(=O)O)cc3)CC2)ccc1O` [Example 182, (4-{4-[(2R)-2-Hydroxy-2-(4-hydroxy-3-methanesulfonylamino-phenyl)-ethylamino]-piperidin-1-yl}-phenyl)-acetic acid], the melting point is > 140 °C (dec.). The “IA(β3)” value in data set [1] came out at 0.86.
The like results for `CC(C)(C)OC(=O)CN1C(=O)SC(Cc2ccc(N3CCC(NC[C@H](O)c4ccc(O)c(NS(C)(=O)=O)c4)CC3)cc2)C1=O` (stereo partly drawn) [Example 64, 5-[[4-[4-[[(R)-2-Hydroxy-2-[4-hydroxy-3-[(methylsulfonyl)amino]phenyl]ethyl]amino]-1-piperidinyl]phenyl]methyl]-2,4-dioxo-3-thiazolidineacetic acid tert-butyl-ester] were, in that order, 130 to 132 °C and 1.
On the same counts, the results for `CCCC(=O)Nc1ccc(N2CCC(NC[C@H](O)COc3cccc4[nH]c(=O)[nH]c34)CC2)cc1` [Example 386, N-{4-[4-({(2S)-2-Hydroxy-3-[(2-oxo-2,3-dihydro-1H-benzimidazol-4-yl)oxy]propyl}-amino)-1-piperidinyl]phenyl}butanamide] are 190 to 201 °C and 0.89.
For the compound `O=C1NC(=O)C(Cc2ccc(N3CCC(NC[C@H](O)COc4cccc5[nH]c(=O)[nH]c45)CC3)cc2)S1` (stereo partly drawn) [Example 80, 5-(4-{4-[(2S)-2-Hydroxy-3-(2-oxo-2,3-dihydro-1H-benzoimidazol-4-yloxy)-propylamino]-piperidin-1-yl}-benzyl)-thiazolidine-2,4-dione], the melting point was 173 to 175 °C (dec.). For the same compound, the “IA(β3)” value in data set [1] worked out at 1.1.
The like results for `O=C1NC(=O)C(Cc2ccc(N3CCC(NC[C@H](O)c4ccc(O)c(NS(=O)(=O)c5ccccc5)c4)CC3)cc2)S1` (stereo partly drawn) [Example 96, N-(5-{(1R)-2-[(1-{4-[(2,4-Dioxo-1,3-thiazolidin-5-yl)methyl]phenyl}piperidin-4-yl)amino]-1-hydroxyethyl}-2-hydroxyphenyl)benzenesulfonamide] were, in that order, > 150 °C (dec.) and 0.93.
On the same counts, the results for `CCOC(=O)CCc1ccc(N2CCC(NC[C@H](O)c3ccc(O)c(NS(C)(=O)=O)c3)CC2)cc1` [Example 187, 3-(4-{4-[(2R)-2-Hydroxy-2-(4-hydroxy-3-methanesulfonylamino-phenyl)-ethylamino]-piperidin-1-yl}-phenyl)-propionic acid ethyl ester] are 76 to 78 °C and 1.03.
The like results for `CS(=O)(=O)Nc1cc([C@@H](O)CNC2CCN(c3ccc(NC(=O)c4ccc5c(c4)OCO5)cc3)CC2)ccc1O` [Example 394, N-(4-{4-[((2R)-2-Hydroxy-2-{4-hydroxy-3-[(methylsulfonyl)amino]phenyl}ethyl)amino]-1-piperidinyl}phenyl)-1,3-benzodioxole-5-carboxamide] were, in that order, 104 to 113 °C and 1.3.
On to `CS(=O)(=O)Nc1cc(C(O)CNC2CCN(c3ccc(C=C4SC(=O)NC4=O)cc3F)CC2)ccc1O` (stereo not shown) [Example 71, N-[5-(2-{1-[4-(2,4-Dioxo-thiazolidin-5-ylidenemethyl)-2-fluoro-phenyl]-piperidin-4-ylamino}-1-hydroxy-ethyl)-2-hydroxy-phenyl]-methanesulfonamide], for which the melting point is over 225 °C. Also, the “IA(β3)” value in data set [1] was found to be 1.2.
Turning to `CS(=O)(=O)Nc1cc([C@@H](O)CNC2CCN(c3ccc(-c4cc(=O)[nH][nH]4)cc3)CC2)ccc1O` [Example 146, N-[(2R)-2-Hydroxy-5-(1-hydroxy-2-{1-[4-(5-oxo-2,5-dihydro-1H-pyrazol-3-yl)-phenyl]-piperidin-4-ylamino}-ethyl)-phenyl]-methanesulfonamide], the melting point is 225 to 227 °C. Further, in data set [1], the “IA(β3)” value is listed as 0.91.
Compound `COc1ccc(C(=O)Nc2ccc(N3CCC(NC[C@H](O)COc4ccc(O)cc4)CC3)cc2)cc1OC` [Example 388, N-[4-(4-{[(2S)-2-Hydroxy-3-(4-hydroxyphenoxy)propyl]amino}-1-piperidinyl)phenyl]-3,4-dimethoxybenzamide] yielded a melting point of 77 to 84 °C. The “IA(β3)” value in data set [1] is listed as 0.75.
The like results for `COC(=O)[C@@H]1CCCN1C(=O)c1ccc(N2CCC(NC[C@H](O)c3ccc(O)c(NS(C)(=O)=O)c3)CC2)cc1` [Example 200, 1-(4-{4-[(2R)-2-Hydroxy-2-(4-hydroxy-3-methanesulfonylamino-phenyl)-ethylamino]-piperidin-1-yl}-benzoyl)-pyrrolidine-(2S)-2-carboxylic acid methyl ester] were, in that order, > 80 °C (dec.) and 1.1.
Turning to `CCOC(=O)[C@@H](NC(=O)c1ccc(N2CCC(NC[C@H](O)c3ccc(O)c(NS(C)(=O)=O)c3)CC2)cc1)C(C)C` [Example 202, (2S)-2-(4-{4-[(2R)-2-Hydroxy-2-(4-hydroxy-3-methanesulfonylamino-phenyl)-ethylamino]-piperidin-1-yl}-benzoylamino)-3-methyl-butyric acid ethyl ester], the melting point is > 85 °C (dec.). The “IA(β3)” value in data set [1] is 1.2.
On the same counts, the results for `CCCC(=O)Nc1ccc(N2CCC(NC[C@H](O)COc3cccc4[nH]c5ccccc5c34)CC2)cc1` [Example 387, N-[4-(4-{[(2S)-3-(9H-Carbazol-4-yloxy)-2-hydroxypropyl]amino}-1-piperidinyl)phenyl]butanamide] are 194 to 199 °C and 0.56.
The like results for `COC(=O)[C@H](Cc1ccccc1)NC(=O)c1ccc(N2CCC(NC[C@H](O)c3ccc(O)c(NS(C)(=O)=O)c3)CC2)cc1` [Example 204, (2S)-2-(4-{4-[(2R)-2-Hydroxy-2-(4-hydroxy-3-methanesulfonylamino-phenyl)-ethylamino]-piperidin-1-yl}-benzoylamino)-3-phenyl-propionic acid methyl ester] were, in that order, > 98 °C (dec.) and 1.2.
The like results for `CS(=O)(=O)Nc1cc([C@@H](O)CNC2CCN(c3ccc(CC4SC(=O)NC4=O)cc3)CC2)ccc1Cl` (stereo partly drawn) [Example 95, N-[2-Chloro-5-((1R)-2-{1-[4-(2,4-dioxo-thiazolidin-5-ylmethyl)-phenyl]-piperidin-4-ylamino}-1-hydroxy-ethyl)-phenyl]-methanesulfonamide] were, in that order, > 105 °C (dec.) and 0.59.
The compound `O=C(Nc1ccc(N2CCC(NC[C@H](O)COc3cccc4[nH]c(=O)[nH]c34)CC2)cc1)c1ccc2c(c1)OCO2` [Example 390, N-{4-[4-({(2S)-2-Hydroxy-3-[(2-oxo-2,3-dihydro-1H-benzimidazol-4-yl)oxy]propyl}-amino)-1-piperidinyl]phenyl}-1,3-benzodioxole-5-carboxamide] came in with a melting point of 160 to 169 °C. In data set [1], the “IA(β3)” value stood at 0.82.
The like results for `CCCCN(Cc1nnn[nH]1)C(=O)c1ccc(N2CCC(NC[C@H](O)c3ccc(O)c(NS(C)(=O)=O)c3)CC2)cc1` [Example 213, N-Butyl-4-{4-[((2R)-2-hydroxy-2-{4-hydroxy-3-[(methylsulfonyl)amino]phenyl}-ethyl)amino]-1-piperidinyl}-N-(1H-tetraazol-5-ylmethyl)benzamide] were, in that order, 168 to 170 °C and 0.97.
The like results for `CS(=O)(=O)Nc1cc([C@@H](O)CNC2CCN(c3ccc(C(=O)N[C@@H](CCC(=O)O)C(=O)O)cc3)CC2)ccc1O` [Example 194, (2S)-2-[(4-{4-[((2R)-2-Hydroxy-2-{4-hydroxy-3-[(methylsulfonyl)amino]phenyl}-ethyl)amino]-1-piperidinyl}benzoyl)amino]pentanedioic acid] were, in that order, > 230 °C (dec.) and 0.88.
Turning to `CS(=O)(=O)Nc1cc([C@@H](O)CNC2CCN(c3ccc(CCC(=O)O)cc3)CC2)ccc1O` [Example 184, 3-(4-{4-[(R)-2-Hydroxy-2-(4-hydroxy-3-methanesulfonylamino-phenyl)-ethylamino]-piperidin-1-yl}-phenyl)-propionic acid], the melting point lay in the range of 130 to 133 °C. For the same compound, the “IA(β3)” value in data set [1] is 1.1.
On the same counts, the results for `CCOC(=O)CNC(=O)c1ccc(N2CCC(NC[C@H](O)c3ccc(O)c(NS(C)(=O)=O)c3)CC2)cc1` [Example 196, Ethyl[(4-{4-[((2R)-2-hydroxy-2-{4-hydroxy-3-[(methylsulfonyl)amino]phenyl}ethyl)amino]-1-piperidinyl}benzoyl)amino]acetate] are > 140 °C (dec.) and 1.1.
The like results for `CS(=O)(=O)Nc1cc([C@@H](O)CNC2CCN(c3ccc(NC(=O)CCC4CCCC4)cc3)CC2)ccc1O` [Example 393, 3-Cyclopentyl-N-(4-{4-[((2R)-2-hydroxy-2-{4-hydroxy-3-[(methylsulfonyl)amino]phenyl}-ethyl)amino]-1-piperidinyl}phenyl)propanamide] were, in that order, 82 to 90 °C and 1.
On the same counts, the results for `O=C1NC(=S)SC1=Cc1ccc(N2CCC(NC[C@H](O)COc3ccccc3)CC2)cc1` [Example 72, 5-{4-[4-((2S)-2-Hydroxy-3-phenoxy-propylamino)-piperidin-1-yl]-benzylidene}-2-thioxo-thiazolidin-4-one] are > 220 °C (dec.) and 0.68.
